Like-named read-outs stand apart in the source and are kept apart here.
Legend:
thioredoxin reductase = molecular target: T1, thioredoxin reductase (Rattus norvegicus, UniProt O89049); assay: Thioredoxin reductase activity assay (gel-based oxidation state of thioredoxin method); assay type: biochemical; settings: gel-based, AMS modification
T1 construct: rat liver thioredoxin reductase; purchased Sigma (St. Louis, Mo.); host or cells: rat liver
T1 sequence (O89049 1-499): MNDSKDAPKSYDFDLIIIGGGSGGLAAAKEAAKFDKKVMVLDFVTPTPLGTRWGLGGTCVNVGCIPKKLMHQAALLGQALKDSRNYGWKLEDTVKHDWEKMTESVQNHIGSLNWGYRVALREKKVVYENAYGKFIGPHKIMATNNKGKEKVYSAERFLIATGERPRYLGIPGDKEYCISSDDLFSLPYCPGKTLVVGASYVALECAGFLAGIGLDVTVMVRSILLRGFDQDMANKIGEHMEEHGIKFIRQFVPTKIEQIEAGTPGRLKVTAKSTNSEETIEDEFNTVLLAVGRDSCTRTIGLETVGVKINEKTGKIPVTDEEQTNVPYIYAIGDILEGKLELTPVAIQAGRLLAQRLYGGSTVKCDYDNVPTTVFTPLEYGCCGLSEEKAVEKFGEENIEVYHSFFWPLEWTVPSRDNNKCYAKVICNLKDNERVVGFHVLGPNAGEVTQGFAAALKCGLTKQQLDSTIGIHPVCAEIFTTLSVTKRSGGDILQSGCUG
Procedure: HeLa cells were obtained from ATCC.
Thioredoxin Reductase Activity Assay (gel-based oxidation state of thioredoxin method): Reduction of thioredoxin by thioredoxin reductase was measured by the decrease in electrophoretic mobility caused by covalent modification of thioredoxin (by AMS) when the disulfide is reduced. […] At the indicated time, a 5 μL sample was removed and immediately added to 5 μL of 30 mM AMS in TE buffer (pH 7.5). The AMS was allowed to react (15 minutes at 22° C.) with reduced thioredoxin sulfhydryl groups, then the samples were mixed with non-reducing sample buffer and were electrophoresed on 18% Tris-HCl SDS-PAGE gels. The gels were stained with Coomassie blue and bands were imaged and quantitated using a Syngene InGenius gel documentation system (Frederick, Md.).

A549 cells [1] = assay type: cell-based, human
Procedure: FIG. 7. […] A549 cells were exposed to the indicated concentration of chaetocin for 24 hours, with addition of glutathione or diluent 30 minutes prior to chaetocin addition. Glutathione levels were assessed by spectrophotometric assay as described below. […] Cells were treated with 10 μM chaetocin for 20 minutes prior to assay, and calculated intracellular chaetocin levels were measured by HPLC with adjusted for differences in average cell volume (calculated from measured cell radii ascertained via light microscopy). Shaded area represents 1 standard deviation confidence interval, with central bar reflecting the mean relative intracellular chaetocin level. […] Cells from 4 myeloma patients were exposed to 200 μM hydrogen peroxide for 24 hours prior to assay, with trypan blue exclusion used to assess surviving cells.
Assessment of cellular oxidative stress: Cellular oxidative stress was assessed utilizing 5,6-chloromethyl-2′,7′-dichlorodihydrofluorescein diacetate or hydroethidium (Molecular Probes/Invitrogen, Carlsbad, Calif.) as cell permeable fluorescent probes and FACS analyses.

A549 cells [2] = settings: for effect of NAC on reductions in colony formation caused by HDAC inhibitors: data not shown
Procedure: FIG. 5. […] B. Assessment of intracellular (A549 cells) and extracellular (media) chaetocin concentrations as functions of time in response to addition of 10 μM chaetocin to tissue culture media at time 0. C. […] For B and C, chaetocin concentrations were determined as described in the text using HPLC. […] Cells were exposed to all agents for 24 hours, with colonies assessed 6-7 days subsequently as described below.
FIG. 6. […] C. and D. The effects of glutathione pretreatment on intracellular (C) and extracellular (media, D) chaetocin concentration in response to treatment of A549 cells with 10 μM chaetocin for 5 min. Intracellular and extracellular chaetocin concentrations were assessed using HPLC as described in the text, with 100 μM glutathione added 5 minutes before chaetocin addition. E. “Double reciprocal” plot indicating the effects of 5 minute pretreatment with 100 […] glutathione or diluent on intracellular chaetocin concentrations resulting from exposure of A549 cells to varying concentration of chaetocin for 5 minutes. Intracellular chaetocin concentrations were assessed using HPLC as described in the text. Results shown are representative of three independent experiments.
Colony formatting assays: Briefly, 650 suspended A549 cells obtained from trypsinization of stock flasks of subconfluent cell cultures were deposited into each of triplicate sets of 35 mm tissue culture plates and allowed to adhere for 16 hours. Cells were then treated for the indicated durations (24 hours unless otherwise indicated) with diluent and/or drugs as indicated in the text and Figures. After drug removal and washing, cells were allowed to proliferate in drug-free medium for 7 to 10 days, and thereafter washed twice with serum-free phosphate buffered saline (PBS), stained with Coomassie blue, and then manually counted.

[3] = test system: freshly collected sorted patient CD138+ myeloma cells; settings: 24 hours
Procedure: FIG. 3. […] Survival indicated in A-E was assessed using a trypan blue exclusion assay, counting viable cells using a hemocytometer after 24 hour exposure to the indicated drugs and drug concentrations.
Patient bone marrow leukocytes were divided into myeloma (CD138+) and non-myeloma/normal leukocyte (CD138−) fractions employing sorting using magnetic bead technology in kit form (MACS CD138 microbeads, Miltenyi Biotech, Auburn, Calif.). Sorted cells were plated in a 96-well tissue culture plate at a concentration of 5×10^5 cells and dosed with indicated drug concentrations for 24 hours. Survival was assessed using a trypan blue exclusion assay.

A549 cells [4] = assay type: cell-based, human; settings: glutathione added 5 minutes before 10 μM chaetocin
Source text: Measurement of intra- and extracellular chaetocin levels: Tumor cells treated with indicated chaetocin concentrations were washed twice with ice cold PBS, immediately solubilized in 0.5 M perchloric acid, and evaluated “real time” via HPLC using Beckman System Gold Nouveau Software with a dual pump 125 gradient pump system, 507e autosampler, 168 diode array detector, and Beckman Ultrasphere ODS column (4.6 mm×[…]×7 μm) using the following elution profile: 100% water to 100% methanol linear gradient over 40 minutes, followed by a 10 minute period of elution with 100% methanol. Quantitation was accomplished using a standard curve of peak areas derived from analogous HPLC data using varying concentrations of chaetocin.

TrxR1 = molecular target: T2, TrxR1 (Rattus norvegicus, UniProt O89049)
T2 sequence (O89049 1-499): T1 sequence (O89049 1-499)
Source text: Reagents: Chaetocin, β-Nicotinamide adenine dinucleotide 2′-phosphate reduced tetrasodium salt hydrate (NADPH), rat liver thioredoxin reductase, 5,5′-dithiobis(2-nitrobenzoic acid) (DTNB), oxidized glutathione (GSSG), bovine insulin, gliotoxin, thioredoxin reductase assay kit, anti-actin antibody and Celytic lysis reagent were purchased from Sigma (St. Louis, Mo.); yeast glutathione reductase and Complete Protease Inhibitor Tablets from Roche (Indianapolis, Ind.); BCA protein from Pierce (Rockford, Ill.); oxidized E. coli thioredoxin and dithiothreitol (DTT) from Promega (Madison, Wis.); verruculogen from Calbiochem (San Diego, Calif.); 4-acetamido-4′-maleimidylstilbene-2,2′-disulfonic acid (AMS) and Lipofectamine-Plus from Invitrogen (Carlsbad, Calif.); chaetomin from Alexis Biochemicals (San Diego, Calif.); and anti-thioredoxin antibody from Cell Signaling (Beverly, Mass.). HeLa cells were obtained from ATCC.
Steady-state kinetics: The 100 μL reaction consisted of 100 mM potassium phosphate (pH 7.0), 10 mM EDTA, 0.0004 U/μL thioredoxin reductase and chaetocin or other compounds as indicated. The assay was carried out in a 96-well quartz plate and the oxidation of NADPH was measured as a change in absorption at 340 nm. The initial velocities of the reaction were calculated from the decrease in the absorbance between 0 and 5 min (slope), and on a pathlength of 0.3 cm and NADPH ε=6.22 mmol^−1*cm^−1*L. The velocity versus concentration data were then analyzed using SigmaPlot's Enzyme Kinetics 1.3 program (Systat Software, San Jose, Calif.).

HeLa cells = assay: Transient thioredoxin overexpression in HeLa cells, trypan blue viability; assay type: cell-based, human; settings: 100 nM, 24 hours
Procedure: A. Transient overexpression of thioredoxin attenuates chaetocin—but not doxorubicin-induced cytotoxicity in HeLa cells. Transfected cells were treated for 24 hours, cell viability assessed using a trypan blue […] assay. Inset: immunoblotting showing increased level of thioredoxin in transiently transfected HeLa cells compared to empty-vector transfected cells. B. Model indicating how chaetocin competes with thioredoxin as a substrate for thioredoxin reductase, thereby serving to attenuate reduction of the thioredoxin reductase downstream substrate and effector thioredoxin. Figure numbers corresponding to experimental data supporting indicated effects are shown.
Cell culture, transient transfections, and immunoblotting: HeLa cells were cultured in RPMI 1640 containing 5% FBS and 2 mM L-glutamine. Cells were passaged twice weekly and maintained in 37° C. in an atmosphere containing 95% air-5% CO2 (vol/vol). For transfections, 10^5 cells per well were plated in 12-well plates and were transfected with 1 μg pcDNA or pcDNA-Trx using standard Lipofectamine-Plus procedures. Transfection efficiency based on cells transfected with GFP was 80%. […] The cells were then trypsinized and manually counted in trypan blue to exclude dead cells. […] Protein was analyzed by BCA assay and lysates were electrophoresed on 15% SDS-PAGE gels and transferred to nitrocellulose. […]

[5] = substrate of TrxR1, NADPH oxidation

## COc1ccc2c3c4n(c2c1)[C@H](C=C(C)C)OOC(C)(C)C[C@@H]4N1C(=O)[C@@H]2CCCN2C(=O)[C@]1(O)[C@H]3O [verruculogen, reference compound]
Thioredoxin reductase
  inhibition of reduction of thioredoxin by thioredoxin reductase: inability

## CC(=O)N[C@@H](CS)C(=O)O [NAC, N-acetyl cysteine]
A549 cells [1]; 10 mM NAC
  effect of pretreatment on chaetocin-induced oxidative stress: attenuated chaetocin-induced oxidative stress
A549 cells [2]; A549 cells, co-treatment with chaetocin
  effect of co-treatment on chaetocin-induced reductions in colony formation: attenuated chaetocin-induced cytotoxicity

## CCCC(CCC)C(=O)O [valproic acid]
A549 cells [2]; A549 cells
  effect of NAC on reductions in colony formation caused by HDAC inhibitors: unaffected by NAC

## OO [H2O2, hydrogen peroxide]
[3]; 200 μM hydrogen peroxide, 4 patients
  sensitivity of patient myeloma cells versus matched normal leukocytes: more sensitive to peroxide-induced cytotoxicity
A549 cells [1]; 24 hours, FACS probe
  cellular oxidative stress: increased intracellular oxidative species

## CC(/C=C/C(=O)NO)=C\[C@@H](C)C(=O)c1ccc(N(C)C)cc1 [tricostatin A, trichostatin A]
A549 cells [2]; A549 cells
  effect of NAC on reductions in colony formation caused by HDAC inhibitors: unaffected by NAC

## N[C@@H](CCC(=O)N[C@@H](CS)C(=O)NCC(=O)O)C(=O)O [glutathione, reference compound]
A549 cells [4]
  effect of pretreatment on cellular accumulation of chaetocin: attenuated the cellular accumulation of chaetocin
A549 cells [2]
  effect of co-treatment on chaetocin-induced reductions in colony formation: attenuated chaetocin-induced cytotoxicity

## CN1C(=O)[C@]23CC4=CC=C[C@H](O)[C@H]4N2C(=O)[C@@]1(CO)SS3 [gliotoxin]
Thioredoxin reductase
  inhibition of reduction of thioredoxin by thioredoxin reductase: also inhibited the activity of thioredoxin reductase, albeit somewhat less effectively than chaetocin
TrxR1
  Km: 16 ± 5 µM

## CN1C(=O)[C@]2(Cc3cn([C@]45C[C@@]67SS[C@@](CO)(C(=O)N6[C@H]4Nc4ccccc45)N(C)C7=O)c4ccccc34)SS[C@@]1(CO)C(=O)N2C [chetomin, chaetomin]
Thioredoxin reductase
  inhibition of reduction of thioredoxin by thioredoxin reductase: also inhibited the activity of thioredoxin reductase, albeit somewhat less effectively than chaetocin
TrxR1; [5]
  Km: 16.1 ± 5.4 µM

## CS[C@@]1(CO)C(=O)N2[C@H]3Nc4ccccc4[C@@]3([C@]34C[C@]5(SC)C(=O)N(C)[C@@](CO)(SC)C(=O)N5[C@H]3Nc3ccccc34)C[C@]2(SC)C(=O)N1C [S-methyl chaetocin]
Thioredoxin reductase
  inhibition of reduction of thioredoxin by thioredoxin reductase: inability
A549 cells [2]; 24 hour exposure, modified chaetocin disulfide bond
  cytotoxicity (colony formation): complete abrogation of its cytotoxicity

## O=C(/C=C/c1ccc(CN(CCO)CCc2c[nH]c3ccccc23)cc1)NO [LAQ-824]
A549 cells [2]; A549 cells
  effect of NAC on reductions in colony formation caused by HDAC inhibitors: unaffected by NAC

## Trx: TrxR1 native substrate thioredoxin (oxidized E. coli thioredoxin from Promega)
TrxR1; [5]
  Km: 105 ± 26 µM

## COc1cccc2c1C(=O)c1c(O)c3c(c(O)c1C2=O)C[C@@](O)(C(=O)CO)C[C@@H]3O[C@H]1C[C@H](N)[C@H](O)[C@H](C)O1 [doxorubicin]
[3]; ex vivo, trypan blue exclusion
  activity against sorted patient CD138+ myeloma cells: largely resistant
HeLa cells
  effect of transient Trx overexpression on drug-induced cell death: did not appreciably rescue cells from doxorubicin-induced cell death

Reference: patent US20090264421A1 (priority 2007, published 2009)
